Assay results published in patent US11981729B2, “Method” (Agency for Science, Technology and Research, priority 2020, dated 2024).

How the values were obtained:
[1] = tested on: MDA ER-G2 cells; test: ECM degradation assay, MDA ER-G2 on rat tail ECM; assay type: cell-based, human; settings: for ECM degradation: MDA ER-G2, 1 mM GSH supplemented, or GPx and H2O2, vs untreated cells; for ECM degradation after ECM pre-treatment: ECM pre-treated before cell seeding
Protocol: (§1) Gelatin (#G1393, Sigma) was first coupled to 5-carboxy-X-rhodamine succinimidyl ester (#C-6125, ThermoFisher Scientific). Sterile coverslips were coated with gelatin for 20 min, then fixed with 0.5% glutaraldehyde (#15960, Electron Microscopy Sciences) for 40 min. After washing, a layer of 0.5 mg/ml type I collagen (#354236 rat tail, Corning) was coated onto these gelatin coverslips and incubated 4 h at 37° C. before cell seeding. Cells were incubated overnight before fixation and staining. At least 20 images were acquired for each condition, experiments were done in 3 biological replicates. The area of degradation was quantified using ImageJ and normalized to the number of nuclei in each image. To chemically reduce collagen disulfide bonds before cell seeding and ECM degradation assay, a 0.5 mg/ml type I collagen matrix was coated onto red gelatin coverslips and incubated 4 h at 37° C. for polymerization. Collagen was incubated with 2.5 mM TCEP (#64, 654-7, Sigma Aldrich) for 30 min at room temperature, rinsed 3 times with 1% BSA in PBS, and incubated with 5 mM N-ethylmaleimide (NEM #23030, ThermoFisher Scientific) for 30 min at room temperature. Coverslips were gently rinsed 3 more times with 1% BSA in PBS before cell seeding and ECM degradation assay. To study the involvement of GSH in collagen disulfide bond reduction, cells were seeded on red gelatin and collagen I coated coverslips to proceed to ECM degradation assay. Cells were incubated 2 h to adhere and where then incubated with 1 mM L-gluthatione reduced (GSH #4251, Sigma Aldrich) overnight before fixation. For the opposite experiment, cells were seeded into red gelatin and collagen I coated coverslips, incubated 2 h to adhere and treated with 10 mg GPx1 (SRP-8010, Sigma Aldrich) and H2O2 every 30 min for 6 hours before fixation. ECM degradation quantification was performed as described above. siRNA oligonucleotides were purchased from Dharmacon. Endogenous Cnx was depleted by 2 rounds of siRNA transfection. Briefly, cells were first treated by reverse transfection with 25 nM of control siRNA ([NT]) or siRNA against [NT]) using Lipofectamine RNAiMAX (ThermoFisher Scientific). The day after, cells were treated again by forward transfection with nM siRNA diluted in Opti-MEM medium (Gibco) and incubated 5 more days before analyzing. Since GALA stimulates ECM degradation and Cnx is present in the responsible subcellular structures, we next asked whether surface Cnx is involved in this activity. To measure ECM degradation, we used a sandwich of fluorescently labeled gelatin overlaid with native ECM of different sources. […] We quantified ECM degradative activity by measuring the loss of fluorescent gelatin using automated image analysis (FIG. 8C). […]

[2] = tested on: NIH3T3vSrc cells; test: ECM degradation assay, NIH3T3vSrc on rat tail ECM; assay type: cell-based, mouse; settings: for ECM degradation: 1 mM GSH supplemented, or GPx and H2O2, vs untreated cells
Protocol: as §1, with “image.” for “image. To chemically reduce collagen disulfide bonds before cell seeding and ECM degradation assay, a 0.5 mg/ml type I collagen matrix was coated onto red gelatin coverslips and incubated 4 h at 37° C. for polymerization. Collagen was incubated with 2.5 mM TCEP (#64, 654-7, Sigma Aldrich) for 30 min at room temperature, rinsed 3 times with 1% BSA in PBS, and incubated with 5 mM N-ethylmaleimide (NEM #23030, ThermoFisher Scientific) for 30 min at room temperature. Coverslips were gently rinsed 3 more times with 1% BSA in PBS before cell seeding and ECM degradation assay.”, “activity.” for “activity. To measure ECM degradation, we used a sandwich of fluorescently labeled gelatin overlaid with native ECM of different sources.”

[3] = tested on: NIH3T3vSrc cells; test: Invadosome rosette formation after Cnx depletion; assay type: cell-based, mouse; settings: siCnx vs siNT5
Protocol: siRNA oligonucleotides were purchased from Dharmacon. Endogenous Cnx was depleted by 2 rounds of siRNA transfection. Briefly, cells were first treated by reverse transfection with 25 nM of control siRNA (5′-UGGUUUACAUGUCGACUAA-3′) or siRNA against Cnx (5′-[…]-3′) using Lipofectamine RNAiMAX (ThermoFisher Scientific). The day after, cells were treated again by forward transfection with nM siRNA diluted in Opti-MEM medium (Gibco) and incubated 5 more days before analyzing.
(§2) To better understand this Cnx requirement, we tested whether Cnx depletion affected invadosomes formation, which we measured in NIH3T3vSrc because of the abundance of invadosomes and ease of detection in these cells (FIG. 2E). Given the lack of effect, we hypothesized an effect on Matrix Metalloproteinases and measured MMP2, 9 and 14 abundance by western blot (FIG. 8F). We also measured MMPs activity in a cell lysate and MMP14 localization in invadosomes rosettes after Cnx depletion (FIG. 8G, FIG. 8H).

[4] = tested on: MMP2, 9 and 14; test: MMP protein level by western blot after Cnx depletion; assay type: cell-based; settings: NIH3T3vSrc after Cnx depletion
Protocol: Cells were washed twice with ice-cold PBS, scraped in ice-cold RIPA lysis buffer (50 mM Tris, 200 mM NaCl, 0.5% NP-40, Complete and PhoStop inhibitor [Roche Applied Science]) and lysed for 30 min at 4° C. Lysates were then clarified by centrifugation at 13000 g for 10 min at 4° C. Lysate concentrations were determined using Bradford reagent (Bio-Rad). Lysates were boiled at 95° C. for 5 min and separated by SDS-PAGE electrophoresis using 4-12% Bis-Tris NuPage gels (Invitrogen) at 180V for 70 min. Samples were then transferred on nitrocellulose membranes using iBlot transfer system (Invitrogen) and blocked using 3% BSA dissolved in TBST (50 mM Tris, 150 mM NaCl and 0.1% Tween-20) for 1 h at room temperature. Membranes were then incubated with primary antibodies (1/1000 diluted in 3% BSA-TBST) overnight at 4° C. […]
as §2

[5] = tested on: MMPs; test: FRET-based MMP activity assay on cell lysates; assay type: biochemical; settings: MDA ER-G2 after Cnx depletion
Protocol: In order to quantify total MMP activity, we used a FRET-based MMP activity assay kit (ab112147), on cell lysates, according to the manufacturer's protocol. Fluorescence was read at 540 nm using a microplate reader (Tecan) every 5 min for 2 h.
as §2

[6] = tested on: MMP14; test: MMP14 localization in invadosome rosettes (immunofluorescence); assay type: cell-based; settings: NIH3T3vSrc after Cnx depletion
Protocol: Cells were seeded on coverslips, at 70 000 cells per well in a 24-well plate (ThermoFisher Scientific) and incubated overnight. Cells were fixed with 4% paraformaldehyde (PFA) in Phosphate Buffered Saline (PBS, Gibco) for 10 min, rinsed 3 times with PBS and then permeabilized with 0.2% Triton X-100 for 10 min. Cells were incubated with primary antibodies (1/100 diluted in 2% FBS-PBS) for 1 h 30 at room temperature, rinsed 3 times with PBS and incubated with secondary antibodies (1/200 diluted in 2% FBS-PBS) for 40 min before being rinsed and mounted on microscope slides.
as §2

[7] = tested on: NIH3T3vSrc cells; test: Cell-mediated ECM disulfide bond reduction (NEM / OX133 staining); assay type: cell-based, mouse; settings: NIH3T3vSrc on rat tail ECM, GM6001 and NEM, 16 hours; Cnx depleted vs control cells
From the text: In the ER, the Cnx-ERp57 complex mediates the formation and isomerization of disulfide bonds in neo-synthesized proteins^40. To explain the surprising requirement of the same complex for matrix degradation, we hypothesized it could mediate the reduction of disulfide bonds in extracellular ECM fibers. To reveal disulfide bonds in ECM preparations, we used the reducing agent tris(2-carboxyethyl)phosphine (TCEP), followed by reaction with N-ethylmaleimide (NEM). […] To test whether disulfide bonds are present in liver ECM, we prepared decellularized mouse liver tissue. The decellularized matrix presented as a meshwork with a diamond-shaped pattern, the fibers staining for Collagen I, III, IV, and fibronectin (FIGS. 4B, FIG. 9A, FIG. 9B). […] We also tested the commercially-sourced liver porcine ECM and the rat tail connective tissue and obtained in both cases an abundant staining with OX133 after TECP/NEM treatment (FIG. 9C). This staining was entirely dependent on TCEP and NEM. In all cases, most of the OX133 signal colocalized with collagen fibers.
To test if cells are able to reduce these disulfide bonds, the actively degrading NIH3T3vSrc cells were sparsely seeded on rat tail ECM. The cells were treated with the MMP inhibitor GM6001 to prevent collagen degradation. NEM was then added to reveal reduced cysteines and after 16 hours, coverslips were fixed and labeled. […]

N[C@@H](CCC(=O)N[C@@H](CS)C(=O)NCC(=O)O)C(=O)O [GSH, L-gluthatione reduced]
ECM degradation [1]: more efficient at ECM degradation
ECM degradation [2]: more efficient at ECM degradation

5′-CAAGAGUGGUCCUAGGAGAUU-3′ [siCnx]
matrix degradation ([2]; siRNA depletion vs control siRNA (siNT5), listed as siRNA targeting Cnx): similarly reduced ECM degradation
rosette formation (number of rosettes per cell and percentage of cells making rosettes) [3]: non significant
MMP2, 9 and 14 abundance by western blot [4]: could not detect any difference
MMPs activity in a cell lysate [5]: could not detect any difference
MMP14 localization in invadosomes rosettes [6]: could not detect any difference
OX133 staining of ECM (reduced disulfide bonds) [7]: significantly reduced

Cl.O=C(O)CCP(CCC(=O)O)CCC(=O)O [TCEP, Tris(2-carboxyethyl)phosphine hydrochloride]
ECM degradation after ECM pre-treatment ([1]; MDA ER-G2 control cells): stimulatory effect on ECM degradation
ECM degradation after ECM pre-treatment ([1]; MDA ER-G2 depleted of Cnx or ERp57): completely reversed the inhibitory effect of Cnx depletion

B1: GPx: GSH peroxidase GPx1 (SRP-8010, Sigma Aldrich), given to cells together with H2O2 (protein, UniProt P00435 1-205, looked up)
Glutathione peroxidase 1: MCAAQRSAAALAAAAPRTVYAFSARPLAGGEPFNLSSLRGKVLLIENVASLUGTTVRDYTQMNDLQRRLGPRGLVVLGFPCNQFGHQENAKNEEILNCLKYVRPGGGFEPNFMLFEKCEVNGEKAHPLFAFLREVLPTPSDDATALMTDPKFITWSPVCRNDVSWNFEKFLVGPDGVPVRRYSRRFLTIDIEPDIETLLSQGASA
ECM degradation [1]: less efficient ECM degradation
ECM degradation [2]: less efficient ECM degradation
